Measured values taken from US20040248967A1, “Promoter for production of nitric oxide or nitric oxide synthase, and cosmetic or pharmaceutical composition comprising the same” (AJINOMOTO CO., INC., priority 2001, published 2004).

Legend:
Format in all cases: cell-based
[1] = tested on: Angioendothelial cells; assay: Nitric oxide production in cultured angioendothelial cells (Griess method); settings: for Formed amount of nitric oxide: 24 hours after addition, L-Arg, L-PCA, GA concentrations (mM) in the medium differ per Example as in Table 1, medium without L-arginine
Description: Angioendothelial cells were cultured using a DMEM medium (Dulbecco-modified MEM) containing 10% fetal bovine serum (FBS). However, phenol red and L-arginine were not added to the medium. The cells were cultured in the medium for 24 hours. After 24 hours of the culture, L-2-pyrrolidone-5-carboxylic acid and L-arginine were added to the medium, the amounts to be added being different for each Example and Comparative Example, as shown in Table 1 below. The culture was further continued for 24 hours.
Thereafter, the produced amount of the nitric oxide was determined by measuring the nitrogen dioxide in the culture supernatant. Nitrogen dioxide was measured by Griess method. The number of the cells in the culture liquid were measured and the formed amount of the nitric oxide per 10^3 cells was expressed in terms of nmol. By the way, as negative controls, the example wherein neither arginine nor pyrrolidonecarboxylic acid was contained (Comparative Example 1) and the example wherein arginine was contained singly (Comparative Example 2) were used. Moreover, as a positive control, the example wherein arginine and glycolic acid were contained (Comparative Example 3) was used.

[2] = tested on: cNOS; assay: RT-PCR of cNOS messenger RNA in angioendothelial cells; settings: 24 hours; for Expressed amount of cNOS (Relative ratio): messenger RNA by RT-PCR
Description: (§1) Angioendothelial cells were cultured using a DMEM medium (Dulbecco-modified MEM) containing 10% fetal bovine serum (FBS). The cells were cultured in the medium for 24 hours. After 24 hours of the culture, the cells were further cultured in the medium to which L-pyrrolidonecarboxylic acid was added so as to achieve a predetermined concentration (See Table 3 given later) for 24 hours, and then the RNA was extracted. For reverse transcription of the RNA, a kit for reverse transcription (manufactured by GIBCO) was used to prepare the cDNA. The cDNA was then subjected to PCR (RT-PCR). Forty cycles of the PCR were carried out under the conditions of denaturing at 95° C. for 30 seconds, annealing at 59° C. for 60 seconds, and extension at 73° C. for 90 seconds.
(§2) As has been described above, using RT-PCR, the expressed amounts of the messenger RNA's of cNOS and iNOS were determined. In this experiment, cNOS was detected, but iNOS was not detected. […] In the table, L-PCA means L-pyrrolidonecarboxylic acid.

[3] = tested on: iNOS; assay: RT-PCR of iNOS messenger RNA in angioendothelial cells; settings: L-PCA 1.0-10.0 mM, 24 hours, RT-PCR 40 cycles
Description: as §1, §2

SMILES | Formed amount of nitric oxide [1] | amount of cNOS depending on the amount of pyrrolidonecarboxylic acid added (in words) ([2]; 1.0-10.0 mM, RT-PCR) | Expressed amount of cNOS (Relative ratio) ([2]; L-PCA added 1.0 mM) | Expressed amount of cNOS (Relative ratio) ([2]; L-PCA added 2.5 mM) | Expressed amount of cNOS (Relative ratio) ([2]; L-PCA added 5.0 mM) | Expressed amount of cNOS (Relative ratio) ([2]; L-PCA added 10.0 mM) | expressed amount of messenger RNA of iNOS (detection) [3] | promoting effect on the production of nitric oxide (in words) ([1]; angioendothelial cells, 24 hours, comparison at 10 mM of added compound)
N=C(N)NCCC[C@H](N)C(=O)O [Comparative Example 2, L-arginine, reference compound] | 1.9 nmol/10^3 cells |  |  |  |  |  |  | 
O=C1CC[C@@H](C(=O)O)N1 [Example 1, L-2-pyrrolidone-5-carboxylic acid] | 1.4 nmol/10^3 cells |  |  |  |  |  |  | 
O=C1CC[C@@H](C(=O)O)N1 [L-PCA, L-2-pyrrolidone-5-carboxylic acid] |  | tended to increase | 1.00 | 1.25 | 1.40 | 1.75 | not detected | exhibited a promoting effect on the production of nitric oxide
